Measurements taken from patent US20040057926A1, “Modulation of the immune response through the manipulation of arginine levels” (LSU Medical Center, priority 2002, published 2004).

tested on: T-cells; assay: Lysosome and proteasome inhibition, CD3ζ expression in T-cells; assay type: cell-based, human; settings: lactacystin 2.5 μM, bafylomycin A1 1 μM
Method: To inhibit lysosome function 2×10^6 T-cells cultured in the presence or absence of L-arginine, were treated with 1 μM bafylomycin A1 (Calbiochem, San Diego, Calif.) or 1 μM folimycin (Calbiochem) during the course of the experiments begining at time 0 (start of the cultures), 24, 48 and 72 hours after stimulation. To inhibit proteasome activity 2.5 μM lactacystin (Calbiochem) was added to the cultures at the same time points. DMSO was used as a control vehicle in all the cases. The CD3ζ expression was tested by flow cytometry 24 hours after the addition of the inhibitors.

Row | Molecule | decrease of CD3ζ upon stimulation with proteosome or lysosome inhibitor
1 | CO/C1=C\C(C)=C\[C@@H](C)[C@@H](O)[C@@H](C)C/C(C)=C/C=C/[C@H](OC)[C@@H]([C@@H](C)[C@@H](O)[C@H](C)[C@@]2(O)C[C@@H](O)[C@H](C)[C@@H](C(C)C)O2)OC1=O [bafilomicyn, bafylomycin A1] | failed to prevent the decrease of CD3ζ upon stimulation
2 | CC(=O)N[C@@H](CSC(=O)[C@]1([C@@H](O)C(C)C)NC(=O)[C@H](C)[C@@H]1O)C(=O)O [lactacystin] | failed to prevent the decrease of CD3ζ upon stimulation

tested on: Jurkat cells; assay: Co-culture in transwells of stimulated PM and Jurkat cells, CD3ζ expression; assay type: cell-based; settings: NOHA 100 μM, Nor-NOHA 50 μM, L-Arg 2 mM, L-NIL 5 μg/ml, catalase 200 U/ml, L-NMMA, L-NNA, L-NAME 1 mM
Method: PM were cultured in 6 well plates in RPMI containing 150 μM L-Arg and stimulated with murine rIL-4 (50 U/ml) and murine rIL-13 (50 ng/ml), or murine rIFN-γ (100 U/ml) for 24 hours. Then 1×10^6 normal T-cells stimulated with anti-CD3 plus anti-CD28 or 1×10^6 Jurkat cells, were cultured in the top chamber of a transwell system having 0.4 μm pores (Falcon, Franklin lakes, N.J.). CD3ζ expression was measured in Jurkat cells or T lymphocytes at different time points. PM were detached using trypsin/EDTA and the expression of protein and RNA for CAT-2B, ASE I, ASE II and iNOS was tested by western blot and northern blot respectively. Cytoplasmic extracts from PM were used to test ASE activity. Supernatants from stimulated PM were used to measure NO production using the Griess reagent method (Molecular Probes, Eugene, Oreg.). In addition, the extra-cellular concentration of L-Arg was tested in supernatants by HPLC (Dr. Gu Yao Wu laboratory, University of Texas) as described previously. O'Quinn, P. R., D. A. Knabe, and G. Wu. 2002. Arginine catabolism in lactating porcine mammary tissue. J Anim Sci. 80:467-474.
Flow cytometry analysis was performed as previously described. Taheri, F., J. B. Ochoa, Z. Faghiri, K. Culotta, H. J. Park, M. S. Lan, A. H. Zea, and A. C. Ochoa. 2001. L-Arginine regulates the expression of the T-cell receptor zeta chain (CD3zeta) in Jurkat cells. Clin Cancer Res 7:958s-965s. Briefly, 5×10^5 Jurkat cells or T lymphocytes were washed once with Dulbecco phosphate-buffered saline 1× (D-PBS) and resuspended in 200 μL of D-PBS containing 1 μg of anti-CD3ε or isotype control. Cells were incubated for 15 min at 4° C., washed with D-PBS and resuspended in 200 μl D-PBS containing 500 μg/ml of digitonin plus 1 μg of anti-CD3ζ or 1 μg of isotypic control. Cells were incubated for 8 minutes after which they were washed and resuspended in 400 μl of D-PBS. Fluorescence acquisition and analysis were done using a Coulter-EPICS XL flow cytometer (Beckman-Coulter) with a 488 nm argon laser. The data were expressed as mean channel fluorescence intensity (MFI).

Row | Molecule | CD3ζ in Jurkat cells co-cultured with PM stimulated with IL-4+IL-13
3 | COC(=O)[C@@H](N)CCCNC(=N)N[N+](=O)[O-] [L-NAME, N-NO2-L-Arg-OMe] | did not prevent CD3ζ decrease
4 | CC(=N)NCCCC[C@H](N)C(=O)O [L-NIL] | did not prevent CD3ζ down-regulation
5 | N=C(NCCC[C@H](N)C(=O)O)N[N+](=O)[O-] [L-NNA, N-NO2-L-Arg] | did not prevent CD3ζ decrease
6 | CNC(=N)NCCC[C@H](N)C(=O)O [NMMA, L-mono-methyl-L-Arg] | partially prevented the CD3ζ down-regulation
7 | Catalase | did not prevent the decrease of CD3ζ

same assay, conditions: data not shown

Row | Molecule | induction of CD3ζ down-regulation by excess of the substance
8 | NCCC[C@H](N)C(=O)O [L-ornithine] | did not induce CD3ζ down-regulation
9 | NC(N)=O [urea] | did not induce CD3ζ down-regulation

tested on: not given; assay: not given; assay type: cell-based; settings: within 24 h, trypan blue exclusion
Method: To further explore possible mechanisms leading to a decreased T-cell response induced by the H. pylori sonicate, various aspects of T-cell signal transduction were studied. […] The expression of the CD3ζ chain, the main signaling element of the T-cell antigen receptor, were then tested. […] Harris, P. R., et al. J. Infect. Dis. 178, pp. 1516-1520 (1998); Zhang, Q. B., et al. Gut 38, pp. 841-845 (1996). Therefore some of these H. pylori proteins were tested to determine whether they could reduce CD3ζ expression. The recombinant proteins CagA, VacA, urease A (UreA), urease B (UreB) were titrated up to 10 μg/ml, a concentration where they caused cell death within 24 h as determined by trypan blue exclusion. […] Harris, P. R., et al. J. Infect. Dis. 178, pp. 1516-1520 (1998); Pai, R., et al. Biochem. Biophys. Res. Commun. 262, pp. 245-250 (1999); Rudnicka, W., et al. J. Physiol Pharmacol. 49, pp. 111-119 (1998); Tanahashi, T., et al. Infect. Immun. 68, pp. 664-671 (2000).

Row | Molecule | concentration where they caused cell death [ng/mL]
10 | NC(N)=O [urea] | 10000
11 | UreB: recombinant H. pylori urease B | 10000
12 | CagA: recombinant H. pylori protein CagA (protein, UniProt P55980 1-1186, looked up) Cytotoxicity-associated …: MTNETIDQTRTPDQTQSQTAFDPQQFINNLQVAFIKVDNVVASFDPDQKPIVDKNDRDNRQAFDGISQLREEYSNKAIKNPTKKNQYFSDFIDKSNDLINKDNLIDVESSTKSFQKFGDQRYQIFTSWVSHQKDPSKINTRSIRNFMENIIQPPIPDDKEKAEFLKSAKQSFAGIIIGNQIRTDQKFMGVFDESLKERQEAEKNGGPTGGDWLDIFLSFIFNKKQSSDVKEAINQEPVPHVQPDIATTTTDIQGLPPEARDLLDERGNFSKFTLGDMEMLDVEGVADIDPNYKFNQLLIHNNALSSVLMGSHNGIEPEKVSLLYAGNGGFGDKHDWNATVGYKDQQGNNVATLINVHMKNGSGLVIAGGEKGINNPSFYLYKEDQLTGSQRALSQEEIRNKVDFMEFLAQNNTKLDNLSEKEKEKFQNEIEDFQKDSKAYLDALGNDRIAFVSKKDTKHSALITEFNNGDLSYTLKDYGKKADKALDREKNVTLQGSLKHDGVMFVDYSNFKYTNASKNPNKGVGATNGVSHLEAGFNKVAVFNLPDLNNLAITSFVRRNLENKLTAKGLSLQEANKLIKDFLSSNKELAGKALNFNKAVAEAKSTGNYDEVKKAQKDLEKSLRKREHLEKEVEKKLESKSGNKNKMEAKAQANSQKDEIFALINKEANRDARAIAYTQNLKGIKRELSDKLEKISKDLKDFSKSFDEFKNGKNKDFSKAEETLKALKGSVKDLGINPEWISKVENLNAALNEFKNGKNKDFSKVTQAKSDLENSVKDVIINQKVTDKVDNLNQAVSVAKAMGDFSRVEQVLADLKNFSKEQLAQQAQKNEDFNTGKNSELYQSVKNSVNKTLVGNGLSGIEATALAKNFSDIKKELNEKFKNFNNNNNGLKNSTEPIYAKVNKKKTGQVASPEEPIYTQVAKKVNAKIDRLNQIASGLGGVGQAAGFPLKRHDKVDDLSKVGLSASPEPIYATIDDLGGPFPLKRHDKVDDLSKVGRSRNQELAQKIDNLNQAVSEAKAGFFGNLEQTIDKLKDSTKKNVMNLYVESAKKVPASLSAKLDNYAINSHTRINSNIQNGAINEKATGMLTQKNPEWLKLVNDKIVAHNVGSVSLSEYDKIGFNQKNMKDYSDSFKFSTKLNNAVKDIKSGFTHFLANAFSTGYYCLARENAEHGIKNVNTKGGFQKS | 10000
